Reference: patent US20230348450A1, “CARBOXYLIC ACID-CONTAINING COMPOUNDS AS MODULATORS OF BIS-PHOSPHOGLYCERATE MUTASE FOR THE TREATMENT OF SICKLE CELL DISEASE” (Genzyme Corporation, priority 2020, published 2023)

Legend:
hBPGM = hBPGM (Homo sapiens (Human), UniProt P07738); assay: BPGM Synthase Assay; type: biochemical; settings: Table 6 additional results; read-out: huBPGM: synthase Enzyme IC50
Protocol: Example B1. BPGM Synthase Assay
The following materials were used in this assay: deionized water; Bisphosphoglycerate mutase (BPGM; Standard Buffer: 50 mM Tris, 0.01% Tween 20, pH 7.4); BPGM Reaction Buffer (50 mM Tris, 0.01% Tween 20, 3.23 mM KH2PO4, pH 7.4); dithiothreitol (DTT; Stock solution: 100 mM in Standard Buffer); 384-Well Black Assay Plate (Corning, P/N 3575); DMSO; BPGM Stock Solution (500 nM in BPGM Standard Buffer); Glyceraldehyde 3-phosphate dehydrogenase (GAPDH; Stock Solution: 40 U/mL in 20 mM Tris-HCL Buffer with 20% Glycerol, 1 mM EDTA, 1 mM DTT); Glyceraldehyde 3-phosphate (GAP; Stock Solution: 20 mM in BPGM Standard Buffer); 3-PG Stock Solution (500 μM in BPGM Standard Buffer); Nicotinamide adenine dinucleotide (NAD; Stock Solution: 50 mM in BPGM Standard Buffer); Koningic Acid (1 mM Stock in DMSO); Resazurin Stock Solution (10 mM in DMSO); Diaphorase Stock Solution (40 U/mL in BPGM Standard Buffer); DTT Reaction Buffer (1 mM DTT in BPGM Reaction Buffer); Enzyme Solution (5 nM BPGM, 0.4 U/mL GAPDH in DTT Reaction Buffer); GAPDH Solution (0.4 U/mL GAPDH in DTT Reaction Buffer); Substrate Solution (2 mM NAD, 20 μM 3PG, 800 μM GAP in DTT Reaction Buffer); and Resazurin Solution (5 U/mL Diaphorase, 500 μM Resazurin in BPGM Standard Buffer).
To the assay plate was added Enzyme Solution (20 uL) to columns 2-22 and 24 of the assay plate. To columns 1 and 23 was added GAPDH Solution (20 uL). A separate compound plate was prepared at the desired concentrations and all wells were normalized with 5% DMSO. The compound plate was incubated for 30 minutes at RT. Next, the substrate solution (20 μL) was dispensed to all reaction wells and the plate was incubated for 60 minutes at RT. Koningic acid (1 μL) was added and the plate was incubated for 10 minutes at RT. During this time period, the NADH fluorescence was read at ex: 360/em: 460. Next, Resazurin Solution (10 μL) was added to all reaction wells and the plate was incubated for 30 minutes at RT. The resorufin fluorescence was then read at ex:544/em:590.

[1] = target: human Bisphosphoglycerate mutase (hBPGM) (Homo sapiens (Human), UniProt P07738); assay: BPGM Phosphatase Assay; type: biochemical; settings: Table 6 additional results; read-out: huBPGM: phosphatase Enzyme EC50
Chain of human Bisphosphoglycerate mutase (hBPGM) (P07738 whole entry): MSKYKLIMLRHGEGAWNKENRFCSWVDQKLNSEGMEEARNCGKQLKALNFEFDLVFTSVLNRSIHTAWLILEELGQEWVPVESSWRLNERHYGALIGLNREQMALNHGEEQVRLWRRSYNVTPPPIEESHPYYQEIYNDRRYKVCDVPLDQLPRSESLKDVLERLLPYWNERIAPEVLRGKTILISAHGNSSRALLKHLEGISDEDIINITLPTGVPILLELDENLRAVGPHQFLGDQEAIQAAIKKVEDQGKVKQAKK
Protocol: Solutions of the test compounds were then added to the plate and the DMSO content was normalized across the plate. The plate was incubated at RT for 15 min. Next, the substrate 2,3-BPG (5 μL) was added to all the wells, and the plate was sealed and incubated for 24 hr at RT. After incubation, BIOMOL green dye (40 μL) was added to all the wells, the plate was shaken to mix, and the plate was incubated at RT for 20-30 min.

Chain of hBPGM (P07738 whole entry, looked up): as the sequence (P07738 whole entry) above

| SMILES | IC50 (hBPGM) | EC50 [1] |
| --- | --- | --- |
| Cc1nc(COC2CCCOC2)sc1-c1cccc(-c2cc(C(=O)O)cs2)n1 (centres unmarked) [Example 49] | 350 nM | 520 nM |
| Cc1nc(CNC2CCOC2)sc1-c1cccc(-c2ccc(C(=O)O)cc2)c1 (centres unmarked) [Example 50] | > 25000 nM | > 25000 nM |
| Cc1nc(CNC2CCOCC2)sc1-c1cccc(-c2ccc(C(=O)O)cc2)c1 [Example 51] | 21000 nM | 4300 nM |
| Cc1nc(CNC2CCCOC2)sc1-c1cccc(-c2ccc(C(=O)O)cc2)c1 (centres unmarked) [Example 52] | 16000 nM | > 25000 nM |
| Cc1nc(CNc2ncccn2)sc1-c1cccc(-c2ccc(C(=O)O)cc2)n1 [Example 63] | 630 nM | > 25000 nM |
| Cc1nc(COc2cc(C(F)(F)F)nn2C)sc1-c1cccc(-c2ccc(C(=O)O)cc2)n1 [Example 65] | 2600 nM | > 25000 nM |
| COC(=O)NCc1nc(C)c(-c2csc(-c3ccc(C(=O)NS(=O)(=O)c4ccc(OCC(=O)O)cc4)cc3)n2)s1 [Example 66] | 61 nM | 110 nM |
| Cc1nc(COC(=O)N(C)C)sc1-c1cccc(-c2ccc(C(=O)O)cc2)c1 [Example 67] | 870 nM | 550 nM |
| Cc1ccnc(NCc2nc(C)c(-c3cccc(-c4ccc(C(=O)O)c(O)c4)c3)s2)c1 [Example 68] | 1400 nM | 60 nM |
| Cc1nc(CNC(=O)c2cccnn2)sc1-c1cccc(-c2ccc(C(=O)O)cc2)c1 [Example 71] | 560 nM | > 25000 nM |
| Cc1nc(COc2ccccn2)sc1-c1cccc(-c2ccc(C(=O)O)cc2)c1 [Example 72] | 480 nM | > 25000 nM |
| Cc1nc(CNC(=O)C(C)(C)C)sc1-c1cccc(-c2ccc(C(=O)O)cc2)c1 [Example 73] | 2200 nM | > 25000 nM |
| Cc1nc(COc2ccc(Cl)cn2)sc1-c1cccc(-c2ccc(C(=O)O)c(O)c2)c1 [Example 74] | 1800 nM | 1100 nM |
| Cc1nc(CO)sc1-c1cccc(-c2cc(C(=O)O)cs2)n1 [Example 75] | 4600 nM | > 25000 nM |
| Cc1nc(COc2ncccn2)sc1-c1cccc(-c2c[nH]c(C(=O)O)c2)n1 [Example 76] | 3500 nM | > 25000 nM |
| Cc1nc(COc2ncccn2)sc1-c1cccc(-c2ccc(C(=O)O)c(C#N)c2)n1 [Example 78] | 180 nM | 70 nM |
| Cc1nc(COc2ncccn2)sc1-c1cccc(-c2csc(C(=O)O)c2)n1 [Example 79] | 550 nM | 110 nM |
| Cc1nc(CNc2ncccn2)sc1-c1cccc(-c2ccc(C(=O)O)cc2)c1 [Example 80] | 220 nM | 1700 nM |
| Cc1nc(CNC(=O)C(C)(C)C)sc1-c1cccc(-c2ccc(C(=O)O)c(O)c2)c1 [Example 81] | 450 nM | 1100 nM |
| Cc1ccc(OCc2nc(C)c(-c3cccc(-c4ccc(C(=O)O)c(O)c4)c3)s2)nc1 [Example 82] | 1100 nM | 210 nM |

| SMILES | IC50 (hBPGM) | EC50 [1] |
| --- | --- | --- |
| Cc1nc(COc2ncccn2)sc1-c1cccc(-c2ccc(C(=O)O)cc2F)n1 [Example 83] | 360 nM | 1400 nM |
| Cc1cccnc1OCc1nc(C)c(-c2cccc(-c3ccc(C(=O)O)c(O)c3)c2)s1 [Example 86] | 1500 nM | 200 nM |
| Cc1nc(COc2ncccn2)sc1-c1cccc(-c2csc(C(=O)O)n2)n1 [Example 87] | 3400 nM | 8700 nM |
| Cc1nc(COc2ncccn2)sc1-c1cccc(-c2ccc(C(=O)O)s2)n1 [Example 88] | 1000 nM | 12000 nM |
| Cc1nc(COc2ccc(C#N)cn2)sc1-c1cccc(-c2ccc(C(=O)O)c(O)c2)c1 [Example 93] | 3300 nM | 270 nM |
| Cc1nc(COc2ncccn2)sc1-c1cccc(-c2cnc(C(=O)O)s2)n1 [Example 94] | 11000 nM | > 25000 nM |
| Cc1nc(COc2ncccn2)sc1-c1cccc(-c2ccc(C(=O)O)cc2)n1 [Example 95] | 280 nM | 2100 nM |
| Cc1nc(COc2ncccn2)sc1-c1cccc(-c2ccc(C(=O)O)c(F)c2)n1 [Example 96] | 1300 nM | 10 nM |
| Cc1nc(CNC(=O)C2CC2)sc1-c1csc(-c2ccc(C(=O)O)c(O)c2)c1 [Example 97] | 100 nM | 160 nM |
| Cc1ccc(Cc2nc(C)c(-c3csc(-c4cc(O)c(C(=O)O)cc4F)c3)s2)cn1 [Example 98] | 170 nM | 100 nM |
| Cc1nc(Cc2cccnc2)sc1-c1cccc(-c2cc(O)c(C(=O)O)cc2F)c1 [Example 99] | 400 nM | 280 nM |
| Cc1nc(Cn2cccc(C#N)c2=O)sc1-c1cccc(-c2ccc(C(=O)O)c(O)c2)c1 [Example 100] | 560 nM | 420 nM |
| Cc1nc(Cn2ccccc2=O)sc1-c1cccc(-c2ccc(C(=O)O)c(O)c2)n1 [Example 101] | 760 nM | 7300 nM |
| Cc1nc(COc2cccnc2)sc1-c1cccc(-c2ccc(C(=O)O)c(O)c2)c1 [Example 102] | 900 nM | 360 nM |
| Cc1nc(Cn2c(C#N)cccc2=O)sc1-c1cccc(-c2ccc(C(=O)O)c(O)c2)c1 [Example 103] | 950 nM | 130 nM |
| Cc1nc(Cc2ccccc2)sc1-c1cccc(-c2cc(O)c(C(=O)O)cc2F)c1 [Example 105] | 1600 nM | 290 nM |
| Cc1nc(C)c(-c2ccc(=O)n(-c3ccc(C(=O)O)c(O)c3)c2)s1 [Example 319] | > 250000 nM | – |
| Cc1nc(Cc2ccccc2C(F)(F)F)sc1-c1cccc(-c2ccc(C(=O)O)c(O)c2)c1 [Example 320] | 7000 nM | – |
| Cc1nc(C)c(-c2csc(-c3ccc(O)c(C(=O)O)c3)n2)s1 [Example 321] | 7300 nM | – |
| Cc1ccc(C#N)c(OCC(=O)N2CC(c3cccc(-c4ccc(C(=O)O)cc4)c3)C2)n1 [Example 322] | > 250000 nM | – |

| SMILES | IC50 (hBPGM) | EC50 [1] |
| --- | --- | --- |
| CCc1nc(C)c(-c2cccc(-c3ccc(C(=O)O)c(O)c3)c2)s1 [Example 323] | 1600 nM | – |
| Cc1nc(C(C)C)sc1-c1cccc(-c2ccc(C(=O)O)c(O)c2)c1 [Example 324] | 2300 nM | – |
| Cc1ncc(-c2cccc(-c3ccc(C(=O)O)c(O)c3)c2)s1 [Example 325] | 3500 nM | – |
| Cc1nc(C)c(-c2cccc(-c3ccc(C(=O)O)cc3)c2)s1 [Example 326] | 6400 nM | – |
| Cc1ccc(C#N)c(OCC(=O)N2CCC(c3cccc(-c4ccc(C(=O)O)c(O)c4)c3)C2)n1 (centres unmarked) [Example 328] | 45000 nM | – |
| Cc1nc(C)c(-c2cccc(-c3ccc(C(=O)O)c(O)c3)c2)s1 [Example 329] | 2300 nM | – |
| Cc1ccc(C#N)c(OCCn2cc(-c3cccc(-c4ccc(C(=O)O)c(O)c4)c3)c(C)n2)n1 [Example 330] | 6600 nM | – |
| COC(=O)NCc1nc(C)c(-c2csc(-c3ccc(C(=O)NS(=O)(=O)c4cccc(OCC(=O)O)c4)cc3)n2)s1 [Example 331] | > 25000 nM | – |
| Cc1ccc(C#N)c(OCC(=O)N/N=C/c2cccc(-c3cc(O)c(C(=O)O)cc3F)c2)n1 [Example 332] | 450 nM | – |
| Cc1nc(C)c(/C=C/c2ccc(C(=O)O)c(O)c2)s1 [Example 333] | 11000 nM | – |
| Cc1nc(COc2ncccn2)sc1-c1cccc(-c2ccc3c(C(=O)O)c[nH]c3c2)n1 [Example 334] | 1700 nM | – |
| Cc1nc(COCC(C)(C)O)sc1-c1cccc(-c2ccc(C(=O)O)c(O)c2)c1 [Example 335] | 310 nM | – |
| Cc1nc(C)c(CCOc2ccc(C(=O)O)c(O)c2)s1 [Example 336] | > 25000 nM | – |
| Cc1nc(C)c(NC(=O)Nc2ccc(C(=O)O)c(O)c2)s1 [Example 337] | > 25000 nM | – |
| Cc1nc(C)c(COc2ccc(C(=O)O)c(O)c2)s1 [Example 338] | > 25000 nM | – |
| Cc1nc(C)c(N2CCN(c3ccc(C(=O)O)c(O)c3)C2=O)s1 [Example 339] | > 25000 nM | – |
| Cc1nc(COc2ccccn2)sc1-c1ccc(-c2ccc(C(=O)O)c(O)c2)s1 [Example 340] | 3600 nM | – |
| Cc1nc(COc2ccc(F)cn2)sc1-c1ccc(-c2ccc(C(=O)O)c(O)c2)s1 [Example 341] | 4100 nM | – |
| Cc1nc(C(=O)O)sc1-c1cccc(-c2cc(F)c3[nH]nnc3c2F)n1 [Example 342] | 1900 nM | – |
